From the NIST ThermoML archive (doi:10.1021/acs.jced.8b00921)
± gives the expanded uncertainty stated by the source.

Experiment: xn = mol fraction of the nth substance listed
Details: Gas, isochoric method

Q: With `F/C=C(\F)C(F)(F)F` [(Z)-1,2,3,3,3-pentafluoro-1-propene] + CC(C)C as the compound, how does the specific volume (303.15 K, 207 kPa, x2 = 0.504) read?
A: 0.1216 ± 0.0004 m3/kg

Q: And the specific volume (308.15 K, 210.7 kPa, x2 = 0.504)?
A: 0.1216 ± 0.0004 m3/kg

Q: What about the specific volume (308.15 K, 303.6 kPa, x2 = 0.797) of the same compound?
A: 0.1074 ± 0.0004 m3/kg

Q: What about the specific volume (308.15 K, 309.8 kPa, x2 = 0.345) of the same compound?
A: 0.0717 ± 0.0003 m3/kg

Q: And the specific volume (308.15 K, 316 kPa, x2 = 0.175)?
A: 0.0632 ± 0.0003 m3/kg

Q: And the specific volume (308.15 K, 394.7 kPa, x2 = 0.916)?
A: 0.0901 ± 0.0003 m3/kg

Q: And the specific volume (308.15 K, 410.6 kPa, x2 = 0.477)?
A: 0.0585 ± 0.0004 m3/kg

Q: What about the specific volume (313.15 K, 214.4 kPa, x2 = 0.504) of the same compound?
A: 0.1216 ± 0.0004 m3/kg

Q: And the specific volume (313.15 K, 309.3 kPa, x2 = 0.797)?
A: 0.1074 ± 0.0004 m3/kg

Q: And the specific volume (313.15 K, 315.5 kPa, x2 = 0.345)?
A: 0.0717 ± 0.0003 m3/kg

Q: And the specific volume (313.15 K, 321.9 kPa, x2 = 0.175)?
A: 0.0632 ± 0.0003 m3/kg

Q: What about the specific volume (313.15 K, 402.8 kPa, x2 = 0.916) of the same compound?
A: 0.0901 ± 0.0003 m3/kg

Q: And the specific volume (313.15 K, 418.8 kPa, x2 = 0.477)?
A: 0.0585 ± 0.0004 m3/kg

Q: And the specific volume (318.15 K, 218 kPa, x2 = 0.504)?
A: 0.1217 ± 0.0004 m3/kg

Q: What about the specific volume (318.15 K, 315 kPa, x2 = 0.797) of the same compound?
A: 0.1074 ± 0.0004 m3/kg

Q: What about the specific volume (318.15 K, 321.3 kPa, x2 = 0.345) of the same compound?
A: 0.0717 ± 0.0003 m3/kg

Q: And the specific volume (318.15 K, 327.8 kPa, x2 = 0.175)?
A: 0.0633 ± 0.0003 m3/kg

Q: And the specific volume (318.15 K, 410.7 kPa, x2 = 0.916)?
A: 0.0901 ± 0.0003 m3/kg

Q: And the specific volume (318.15 K, 426.9 kPa, x2 = 0.477)?
A: 0.0585 ± 0.0004 m3/kg

Q: And the specific volume (323.15 K, 221.7 kPa, x2 = 0.504)?
A: 0.1217 ± 0.0004 m3/kg

Q: What about the specific volume (323.15 K, 320.6 kPa, x2 = 0.797) of the same compound?
A: 0.1074 ± 0.0004 m3/kg

Q: And the specific volume (323.15 K, 327 kPa, x2 = 0.345)?
A: 0.0717 ± 0.0003 m3/kg

Q: And the specific volume (323.15 K, 333.7 kPa, x2 = 0.175)?
A: 0.0633 ± 0.0003 m3/kg

Q: And the specific volume (323.15 K, 418.5 kPa, x2 = 0.916)?
A: 0.0901 ± 0.0003 m3/kg

Q: What about the specific volume (323.15 K, 434.9 kPa, x2 = 0.477) of the same compound?
A: 0.0585 ± 0.0004 m3/kg

Q: And the specific volume (328.15 K, 225.3 kPa, x2 = 0.504)?
A: 0.1217 ± 0.0004 m3/kg

Q: And the specific volume (328.15 K, 326.2 kPa, x2 = 0.797)?
A: 0.1075 ± 0.0004 m3/kg

Q: What about the specific volume (328.15 K, 332.9 kPa, x2 = 0.345) of the same compound?
A: 0.0718 ± 0.0003 m3/kg

Q: And the specific volume (328.15 K, 339.5 kPa, x2 = 0.175)?
A: 0.0633 ± 0.0003 m3/kg

Q: And the specific volume (328.15 K, 426.4 kPa, x2 = 0.916)?
A: 0.0902 ± 0.0003 m3/kg

Q: And the specific volume (328.15 K, 442.8 kPa, x2 = 0.477)?
A: 0.0586 ± 0.0003 m3/kg

Q: What about the specific volume (333.15 K, 229 kPa, x2 = 0.504) of the same compound?
A: 0.1217 ± 0.0004 m3/kg

Q: And the specific volume (333.15 K, 331.8 kPa, x2 = 0.797)?
A: 0.1075 ± 0.0003 m3/kg

Q: What about the specific volume (333.15 K, 338.6 kPa, x2 = 0.345) of the same compound?
A: 0.0718 ± 0.0003 m3/kg

Q: What about the specific volume (333.15 K, 346.4 kPa, x2 = 0.175) of the same compound?
A: 0.0633 ± 0.0003 m3/kg

Q: What about the specific volume (333.15 K, 434 kPa, x2 = 0.916) of the same compound?
A: 0.0902 ± 0.0003 m3/kg

Q: What about the specific volume (333.15 K, 450.8 kPa, x2 = 0.477) of the same compound?
A: 0.0586 ± 0.0003 m3/kg

Q: What about the specific volume (338.15 K, 232.6 kPa, x2 = 0.504) of the same compound?
A: 0.1218 ± 0.0003 m3/kg

Q: And the specific volume (338.15 K, 337.4 kPa, x2 = 0.797)?
A: 0.1075 ± 0.0003 m3/kg

Q: And the specific volume (338.15 K, 344.2 kPa, x2 = 0.345)?
A: 0.0718 ± 0.0003 m3/kg

Q: What about the specific volume (338.15 K, 351.2 kPa, x2 = 0.175) of the same compound?
A: 0.0633 ± 0.0003 m3/kg

Q: And the specific volume (338.15 K, 441.7 kPa, x2 = 0.916)?
A: 0.0902 ± 0.0003 m3/kg

Q: And the specific volume (338.15 K, 458.7 kPa, x2 = 0.477)?
A: 0.0586 ± 0.0003 m3/kg

Q: And the specific volume (343.15 K, 236.3 kPa, x2 = 0.504)?
A: 0.1218 ± 0.0003 m3/kg

Q: And the specific volume (343.15 K, 342.9 kPa, x2 = 0.797)?
A: 0.1075 ± 0.0003 m3/kg

Q: And the specific volume (343.15 K, 349.8 kPa, x2 = 0.345)?
A: 0.0718 ± 0.0003 m3/kg

Q: And the specific volume (343.15 K, 357 kPa, x2 = 0.175)?
A: 0.0633 ± 0.0003 m3/kg

Q: And the specific volume (343.15 K, 449.4 kPa, x2 = 0.916)?
A: 0.0902 ± 0.0003 m3/kg

Q: What about the specific volume (343.15 K, 466.6 kPa, x2 = 0.477) of the same compound?
A: 0.0586 ± 0.0003 m3/kg

Q: And the specific volume (348.15 K, 239.9 kPa, x2 = 0.504)?
A: 0.1218 ± 0.0003 m3/kg

Q: What about the specific volume (348.15 K, 348.5 kPa, x2 = 0.797) of the same compound?
A: 0.1076 ± 0.0003 m3/kg

Q: And the specific volume (348.15 K, 355.4 kPa, x2 = 0.345)?
A: 0.0718 ± 0.0003 m3/kg

Q: And the specific volume (348.15 K, 362.8 kPa, x2 = 0.175)?
A: 0.0633 ± 0.0002 m3/kg

Q: What about the specific volume (348.15 K, 457 kPa, x2 = 0.916) of the same compound?
A: 0.0902 ± 0.0003 m3/kg

Q: What about the specific volume (348.15 K, 474.5 kPa, x2 = 0.477) of the same compound?
A: 0.0586 ± 0.0003 m3/kg

Q: And the specific volume (353.15 K, 243.6 kPa, x2 = 0.504)?
A: 0.1218 ± 0.0003 m3/kg

Q: And the specific volume (353.15 K, 354.1 kPa, x2 = 0.797)?
A: 0.1076 ± 0.0003 m3/kg

Q: And the specific volume (353.15 K, 361 kPa, x2 = 0.345)?
A: 0.0718 ± 0.0003 m3/kg

Q: What about the specific volume (353.15 K, 368.6 kPa, x2 = 0.175) of the same compound?
A: 0.0634 ± 0.0002 m3/kg

Q: And the specific volume (353.15 K, 464.6 kPa, x2 = 0.916)?
A: 0.0903 ± 0.0003 m3/kg

Q: What about the specific volume (353.15 K, 482.3 kPa, x2 = 0.477) of the same compound?
A: 0.0586 ± 0.0003 m3/kg

Q: What about the specific volume (358.15 K, 247.3 kPa, x2 = 0.504) of the same compound?
A: 0.1219 ± 0.0003 m3/kg

Q: What about the specific volume (358.15 K, 359.6 kPa, x2 = 0.797) of the same compound?
A: 0.1076 ± 0.0003 m3/kg

Q: What about the specific volume (358.15 K, 366.6 kPa, x2 = 0.345) of the same compound?
A: 0.0719 ± 0.0003 m3/kg

Q: What about the specific volume (358.15 K, 374.3 kPa, x2 = 0.175) of the same compound?
A: 0.0634 ± 0.0002 m3/kg

Q: What about the specific volume (358.15 K, 472.2 kPa, x2 = 0.916) of the same compound?
A: 0.0903 ± 0.0003 m3/kg

Q: What about the specific volume (358.15 K, 490.2 kPa, x2 = 0.477) of the same compound?
A: 0.0586 ± 0.0003 m3/kg

Q: What about the specific volume (363.15 K, 251 kPa, x2 = 0.504) of the same compound?
A: 0.1219 ± 0.0003 m3/kg

Q: And the specific volume (363.15 K, 365.1 kPa, x2 = 0.797)?
A: 0.1076 ± 0.0003 m3/kg

Q: What about the specific volume (363.15 K, 372.2 kPa, x2 = 0.345) of the same compound?
A: 0.0719 ± 0.0003 m3/kg

Q: What about the specific volume (363.15 K, 380.1 kPa, x2 = 0.175) of the same compound?
A: 0.0634 ± 0.0002 m3/kg

Q: And the specific volume (363.15 K, 479.8 kPa, x2 = 0.916)?
A: 0.0903 ± 0.0003 m3/kg

Q: And the specific volume (363.15 K, 497.9 kPa, x2 = 0.477)?
A: 0.0586 ± 0.0003 m3/kg

Q: What about the specific volume (368.15 K, 254.6 kPa, x2 = 0.504) of the same compound?
A: 0.1219 ± 0.0003 m3/kg

Q: And the specific volume (368.15 K, 370.4 kPa, x2 = 0.797)?
A: 0.1077 ± 0.0003 m3/kg

Q: What about the specific volume (368.15 K, 377.8 kPa, x2 = 0.345) of the same compound?
A: 0.0719 ± 0.0003 m3/kg

Q: What about the specific volume (368.15 K, 385.9 kPa, x2 = 0.175) of the same compound?
A: 0.0634 ± 0.0002 m3/kg

Q: And the specific volume (368.15 K, 487.3 kPa, x2 = 0.916)?
A: 0.0903 ± 0.0003 m3/kg

Q: And the specific volume (368.15 K, 505.7 kPa, x2 = 0.477)?
A: 0.0587 ± 0.0003 m3/kg

Q: What about the specific volume (373.15 K, 258.3 kPa, x2 = 0.504) of the same compound?
A: 0.122 ± 0.0003 m3/kg

Q: What about the specific volume (373.15 K, 375.9 kPa, x2 = 0.797) of the same compound?
A: 0.1077 ± 0.0003 m3/kg

Q: What about the specific volume (373.15 K, 383.4 kPa, x2 = 0.345) of the same compound?
A: 0.0719 ± 0.0003 m3/kg

Q: What about the specific volume (373.15 K, 391.6 kPa, x2 = 0.175) of the same compound?
A: 0.0634 ± 0.0002 m3/kg

Q: And the specific volume (373.15 K, 494.9 kPa, x2 = 0.916)?
A: 0.0903 ± 0.0003 m3/kg

Q: What about the specific volume (373.15 K, 513.5 kPa, x2 = 0.477) of the same compound?
A: 0.0587 ± 0.0003 m3/kg

Q: What about the specific volume (378.15 K, 262 kPa, x2 = 0.504) of the same compound?
A: 0.122 ± 0.0004 m3/kg

Q: And the specific volume (378.15 K, 381.6 kPa, x2 = 0.797)?
A: 0.1077 ± 0.0003 m3/kg

Q: And the specific volume (378.15 K, 389 kPa, x2 = 0.345)?
A: 0.0719 ± 0.0003 m3/kg

Q: What about the specific volume (378.15 K, 397.3 kPa, x2 = 0.175) of the same compound?
A: 0.0634 ± 0.0002 m3/kg

Q: And the specific volume (378.15 K, 502.4 kPa, x2 = 0.916)?
A: 0.0904 ± 0.0003 m3/kg

Q: And the specific volume (378.15 K, 521.3 kPa, x2 = 0.477)?
A: 0.0587 ± 0.0003 m3/kg

Q: And the specific volume (383.15 K, 265.6 kPa, x2 = 0.504)?
A: 0.122 ± 0.0004 m3/kg

Q: What about the specific volume (383.15 K, 387 kPa, x2 = 0.797) of the same compound?
A: 0.1077 ± 0.0003 m3/kg

Q: And the specific volume (383.15 K, 394.6 kPa, x2 = 0.345)?
A: 0.0719 ± 0.0003 m3/kg

Q: And the specific volume (383.15 K, 403.1 kPa, x2 = 0.175)?
A: 0.0634 ± 0.0002 m3/kg

Q: And the specific volume (383.15 K, 509.9 kPa, x2 = 0.916)?
A: 0.0904 ± 0.0003 m3/kg

Q: What about the specific volume (383.15 K, 529 kPa, x2 = 0.477) of the same compound?
A: 0.0587 ± 0.0003 m3/kg
